Reference: patent US20260250320A1, “LIPIDATED PEPTIDE INHIBITORS OF INTERLEUKIN-23 RECEPTOR” (Janssen Pharmaceutica NV, priority 2023, published 2026)
*1 amine or outer side, *2 acyl side, *3 side chain or, on linkers, in order; H or OH if unused. Where a SMILES comes first, the peptide text is derived from it. Bridges are numbered along the chain shown (N, C = ends). Side-chain parts run from the residue outwards. [ ]: non-standard residue; d: D form. The star is where a group is joined. Me3N+CH2CH2(OCH2CH2)4CO = C[N+](C)(C)CCOCCOCCOCCOCCC(=O)*; PEG12 = NCCOCCOCCOCCOCCOCCOCCOCCOCCOCCOCCOCCOCCC(=O)O; NH(CH2CH2O)2CH2CH2NMe3+ = C[N+](C)(C)CCOCCOCCN*; Trp(7-Me) = Cc1cccc2c(C[C@H](N)C(=O)O)c[nH]c12; Abu(4-yl) = O=C([C@H](CC[*:3])N[*:1])[*:2]; C18 diacid = O=C(O)CCCCCCCCCCCCCCCCC(=O)*; X6 = CN(CC[C@H](N[*:1])C(=O)[*:2])[*:3]; γGlu = O=C(O)[C@H](CCC(=O)[*:2])N[*:1]; 2Nal = N[C@@H](Cc1ccc2ccccc2c1)C(=O)O; AEF = NCCOc1ccc(C[C@H](N)C(=O)O)cc1; X2 = C[N+](C)(C)C[C@@H](CC(=O)O)N*; 3Pal = N[C@@H](Cc1cccnc1)C(=O)O; NMeK = CN[C@@H](CCCCN)C(=O)O; Pen = CC(C)(S)[C@H](N)C(=O)O; Suc = O=C(CCC(=O)[*:2])[*:1]; Lauroyl = CCCCCCCCCCCC(=O)*; αMeC = C[C@](N)(CS)C(=O)O; Thp = NC1(C(=O)O)CCOCC1; AEEA = NCCOCCOCC(=O)O; Sar = CNCC(=O)O

What follows are molecules tested against T1, IL-23R (Homo sapiens, UniProt Q5VWK5) (assay: IL23R Reporter Assay). Details: HEK293 cells containing IL-23R, IL-12Rβ1 and STAT-inducible firefly luciferase reporter; 10 ng/mL IL-23 (EC90); 5 h.
T1 construct: HEK293 cells containing IL-23R, IL-12Rβ1 and a firefly luciferase reporter gene driven by a STAT-inducible promoter (Promega); host or cells: HEK293
T1 sequence (Q5VWK5 24-629): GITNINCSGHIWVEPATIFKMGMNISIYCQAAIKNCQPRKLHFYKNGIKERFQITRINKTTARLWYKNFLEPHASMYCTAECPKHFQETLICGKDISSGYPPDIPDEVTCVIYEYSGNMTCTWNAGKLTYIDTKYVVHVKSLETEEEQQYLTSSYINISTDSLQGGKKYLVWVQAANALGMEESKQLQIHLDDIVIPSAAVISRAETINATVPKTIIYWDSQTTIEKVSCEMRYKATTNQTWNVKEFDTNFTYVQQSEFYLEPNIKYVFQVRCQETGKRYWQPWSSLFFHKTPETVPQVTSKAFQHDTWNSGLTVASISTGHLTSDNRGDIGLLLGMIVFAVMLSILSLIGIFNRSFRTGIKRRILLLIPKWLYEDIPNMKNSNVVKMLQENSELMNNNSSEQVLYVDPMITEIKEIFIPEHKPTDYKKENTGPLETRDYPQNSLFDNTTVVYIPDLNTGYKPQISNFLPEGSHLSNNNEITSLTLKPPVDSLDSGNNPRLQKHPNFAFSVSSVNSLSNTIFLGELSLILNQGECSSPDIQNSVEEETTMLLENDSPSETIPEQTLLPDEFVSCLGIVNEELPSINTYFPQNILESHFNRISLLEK
Type: cell-based
Experimental: Compounds were serially diluted in 100% (v/v) DMSO) and plated using an Echo acoustic dispenser (Labcyte) into 1536-well non-treated black assay plates (Corning #9146). 3 μL of HEK293 cells containing IL-23R, IL-12Rβ1 and a firefly luciferase reporter gene driven by a STAT-inducible promoter (Promega) were added to the plates (4000 cells/well), followed by 3 μL of 10 ng/mL IL-23 (equivalent to EC90 concentration). After 5 h at 37° C., 5% CO2, 95% relative humidity, cells were placed at 20° C. and treated with BioGlo reagent (Promega) according to the Manufacturer's instructions. Luminescence was measured on a Pherastar FSX (BMG LabTech). Data were normalized to IL-23 treatment (0% inhibition) and 30 μM of control inhibitor (100% inhibition), and IC50 values were determined using a 4-parameter Hill equation.
For `CC(=O)NCCCC[C@@H]1NC(=O)[C@H](Cc2c[nH]c3c(C)cccc23)NC(=O)[C@H]([C@@H](C)O)NC(=O)[C@H](CC(N)=O)NC(=O)[C@@H](NC(C)=O)C(C)(C)SSC(C)(C)[C@@H](C(=O)N[C@@H](Cc2ccc(OCCN)cc2)C(=O)N[C@@H](Cc2ccc3ccccc3c2)C(=O)NC2(C(=O)N[C@@H](CCC(=O)O)C(=O)N[C@@H](CC(N)=O)C(=O)N[C@@H](Cc3cccnc3)C(=O)N(C)CC(=O)N[C@@H](CCCCNC(=O)COCCOCCNC(=O)COCCOCCNC(=O)CC[C@H](NC(=O)CCCCCCCCCCCCCCCCCCC(=O)O)C(=O)O)C(=O)NCCOCCOCC[N+](C)(C)C)CCOCC2)NC1=O` [compound 93, MeCO-Pen(3)-N-T-7MeW-K(Ac)-Pen(3)-AEF-2Nal-THP-K(Ac)-N-3Pya-Sar-K(PEG2PEG2gEC20OH)-CONH(PEG3a)], the IC50 was 0.05 to 0.5 µM. Work on `CCCCCCCCCCCC(=O)N[C@@H](CCC(=O)NCCOCCOCC(=O)NCCOCCOCC(=O)N[C@H](CCCNC(=N)N)C(=O)N[C@H]1CCSC[C@@](C)(C(=O)N[C@@H](Cc2ccc(OCCN)cc2)C(=O)N[C@@H](Cc2ccc3ccccc3c2)C(=O)NC2(C(=O)N[C@@H](CCC(=O)O)C(=O)N[C@@H](CC(N)=O)C(=O)N[C@@H](Cc3cccnc3)C(=O)N(C)CC(N)=O)CCOCC2)NC(=O)[C@H](CCCCNC(C)=O)NC(=O)[C@H](Cc2c[nH]c3c(C)cccc23)NC(=O)[C@H]([C@@H](C)O)NC(=O)[C@H](CC(N)=O)NC1=O)C(=O)O` [compound 6, C12gEPEG2PEG2CO-r-Abu(1)-N-T-7MeW-K(Ac)-aMeC(1)-AEF-2Nal-THP-E-N-ePya-Sar CONH2] ({Lauroyl-γGlu-AEEA-AEEA}-[dR][Abu(4-yl)]NT[Trp(7-Me)]K(Ac)[αMeC][AEF][2Nal][Thp]EN[3Pal][Sar]-NH2; thioether 2-7) yielded an IC50 of under 0.05 µM. For `CC(=O)N[C@H](CCCNC(=N)N)C(=O)N[C@@H]1C(=O)N[C@@H](CC(N)=O)C(=O)N[C@@H]([C@@H](C)O)C(=O)N[C@@H](Cc2c[nH]c3c(C)cccc23)C(=O)N[C@@H](CCCCNC(=O)CCC(=O)N[C@H](CC(=O)O)C[N+](C)(C)C)C(=O)N[C@H](C(=O)N[C@@H](Cc2ccc(OCCN)cc2)C(=O)N[C@@H](Cc2ccc3ccccc3c2)C(=O)NC2(C(=O)N[C@@H](CCC(=O)O)C(=O)N[C@@H](CC(N)=O)C(=O)N[C@@H](Cc3cccnc3)C(=O)N(C)[C@@H](CCCCNC(=O)COCCOCCNC(=O)COCCOCCNC(=O)CC[C@H](NC(=O)CCCCCCCCCCCCCCCCC(=O)O)C(=O)O)C(N)=O)CCOCC2)C(C)(C)SSC1(C)C` [compound 29, MeCO-r-Pen(3)-N-T-7MeW-K(D)-Pen(3)-AEF-2Nal-THP-E-N-3Pya-NMeK(PEG2PEG2gEC18OH)-CONH2] (Ac-[dR][Pen]NT[Trp(7-Me)]K([Suc-X2])[Pen][AEF][2Nal][Thp]EN[3Pal][NMeK]([AEEA-AEEA-γGlu-C18 diacid])-NH2; disulfide 2-7), the IC50 was 0.05 to 0.5 µM.

What follows are molecules tested on IL-23-stimulated phosphorylated STAT3 in peripheral blood mononuclear cells (PBMCs) (assay: PBMC pSTAT3 Assay). Details: PBMCs from healthy donors; 30 min preincubation with peptide; IL-23 5 ng/mL for 30 min; phospho-STAT3 by MSD.
Type: cell-based
Experimental: Cryopreserved peripheral blood mononuclear cells (PBMCs) from healthy donors were thawed and washed twice in ImmunoCult-XF T cell expansion medium (XF-TCEM) supplemented with CTL anti-aggregate wash. The cells were counted, resuspended at 2-6×10^5 cells per mL XF-TCEM supplemented with penicillin/streptomycin and 100 ng/mL […] (BioLegend, 579404), and cultured in tissue culture flasks coated with anti-CD3 (eBioscience, 16-0037-85 or BD Pharmingen, 555329) at 37° C. in 5% CO2. On day 4 of culture, PBMCs were collected, washed twice in RPMI-1640 supplemented with 0.1% BSA (RPMI-BSA), and incubated in RPMI-BSA in upright tissue culture flasks for ~4 hours at 37° C. in 5% CO2. Following this 'starvation,' a total of 6×10^4 cells in 30 μL RPMI-BSA was transferred into each well of a 384-well plate pre-spotted with peptide or DMSO. The cells were incubated for 30 minutes prior to the addition of […] at a final concentration of 5 ng/mL. The cells were stimulated with cytokine for 30 minutes at 37° C. in 5% CO2, transferred onto ice for 10 minutes, and lysed. Cell lysates were stored at -80° C. until phosphorylated STAT3 was measured using the phospho-STAT panel kit (Meso Scale Discovery, […]). Results are provided below. • A: IC50<0.5 nM; • B: 0.5 nM≤IC50<5 nM; • C: 5 nM≤IC50; • ND: Not determined
`CC(=O)NCCCC[C@@H]1NC(=O)[C@H](Cc2c[nH]c3c(C)cccc23)NC(=O)[C@H]([C@@H](C)O)NC(=O)[C@H](CC(N)=O)NC(=O)[C@@H](NC(=O)[C@@H](CCCNC(=N)N)NC(C)=O)C(C)(C)SSC(C)(C)[C@@H](C(=O)N[C@@H](Cc2ccc(OCCN)cc2)C(=O)N[C@@H](Cc2ccc3ccccc3c2)C(=O)NC2(C(=O)N[C@@H](CCC(=O)O)C(=O)N[C@@H](CC(N)=O)C(=O)N[C@@H](Cc3cccnc3)C(=O)N(C)CC(=O)N[C@@H](CCCCNC(=O)COCCOCCNC(=O)COCCOCCNC(=O)CC[C@H](NC(=O)CCCCCCCCCCCCCCCCC(=O)O)C(=O)O)C(=O)NCCOCCOCC[N+](C)(C)C)CCOCC2)NC1=O` [compound 40, MeCO-r-Pen(3)-N-T-7MeW-K(Ac)-Pen(3)-AEF-2Nal-THP-E-N-3Pya-Sar-K(PEG2PEG2gEC18OH)-CONH(PEG3a)] (Ac-[dR][Pen]NT[Trp(7-Me)]K(Ac)[Pen][AEF][2Nal][Thp]EN[3Pal][Sar]K([AEEA-AEEA-γGlu-C18 diacid])-{NH(CH2CH2O)2CH2CH2NMe3+}; disulfide 2-7) was tested, and the IC50 was 0.0005 to 0.005 µM. `CC(=O)NCCCC[C@@H]1NC(=O)[C@H](Cc2c[nH]c3c(C)cccc23)NC(=O)[C@H]([C@@H](C)O)NC(=O)[C@H](CC(N)=O)NC(=O)[C@@H](NC(C)=O)C(C)(C)SSC(C)(C)[C@@H](C(=O)N[C@@H](Cc2ccc(OCCCCC[N+](C)(C)C)cc2)C(=O)N[C@@H](Cc2ccc3ccccc3c2)C(=O)NC2(C(=O)N[C@@H](CCCCNC(=O)COCCOCCNC(=O)COCCOCCNC(=O)CC[C@H](NC(=O)CCCCCCCCCCCCCCCCC(=O)O)C(=O)O)C(=O)N[C@@H](CC(N)=O)C(=O)N[C@@H](Cc3ccccn3)C(=O)N(C)CC(N)=O)CCOCC2)NC1=O` [compound 85, MeCO-Pen(3)-N-T-7MeW-K(Ac)-Pen(3)-TMAPF-2Nal-THP-K(PEG2PEG2gEC18OH)-N-3Pya-Sar-CONH2] was tested, and the IC50 was under 0.0005 µM. `CC(=O)NCCCC[C@@H]1NC(=O)[C@H](Cc2c[nH]c3c(C)cccc23)NC(=O)[C@H]([C@@H](C)O)NC(=O)[C@H](CCCCNC(=O)COCCOCCNC(=O)COCCOCCNC(=O)CC[C@H](NC(=O)CCCCCCCCCCCCCCCCC(=O)O)C(=O)O)NC(=O)[C@@H](NC(C)=O)C(C)(C)SSC(C)(C)[C@@H](C(=O)N[C@@H](Cc2ccc(OCCN)cc2)C(=O)N[C@@H](Cc2ccc3ccccc3c2)C(=O)NC2(C(=O)N[C@@H](CCCCNC(=O)CCC(=O)N[C@H](CC(=O)O)C[N+](C)(C)C)C(=O)N[C@@H](CC(N)=O)C(=O)N[C@@H](Cc3cccnc3)C(=O)N(C)CC(N)=O)CCOCC2)NC1=O` [compound 14, MeCO-Pen(3)-K(PEG2PEG2gEC18OH)-T-7MeW-K(Ac)-Pen(3)-AEF-2Nal-THP-K(d)-N-3Pya-Sar-CONH2] (Ac-[Pen]K([AEEA-AEEA-γGlu-C18 diacid])T[Trp(7-Me)]K(Ac)[Pen][AEF][2Nal][Thp]K([Suc-X2])N[3Pal][Sar]-NH2; disulfide 1-6) was tested, and the IC50 was under 0.0005 µM. With `Cc1cccc2c(C[C@@H]3NC(=O)[C@H]([C@@H](C)O)NC(=O)[C@H](CC(=O)N(C)C)NC(=O)[C@@H](NC(=O)CCOCCOCCOCCOCC[N+](C)(C)C)C(C)(C)SSC(C)(C)[C@@H](C(=O)N[C@@H](Cc4ccc(OCCN)cc4)C(=O)N[C@@H](Cc4ccc5ccccc5c4)C(=O)NC4(C(=O)N[C@@H](CCC(=O)O)C(=O)N[C@@H](CC(N)=O)C(=O)N[C@@H](Cc5cccnc5)C(=O)N(C)[C@@H](CCCCNC(=O)CCOCCOCCOCCOCCOCCOCCOCCOCCOCCOCCOCCOCCNC(=O)CC[C@H](NC(=O)CCCCCCCCCCCCCCCCC(=O)O)C(=O)O)C(N)=O)CCOCC4)NC(=O)[C@H](CCN(C)C(=O)CCOCCOCCOCCOCC[N+](C)(C)C)NC3=O)c[nH]c12` [compound 111, cPEG5aCO-Pen(3)-N(N(Me)2)-T-7MeW-Dab(NMecPEG5a)-Pen(3)-AEF-2Nal-THP-E-N-3Pya-NMeK(PEG12gEC18OH)-CONH2] ({Me3N+CH2CH2(OCH2CH2)4CO}-[Pen]D(NMe2)T[Trp(7-Me)][X6](Me3N+CH2CH2(OCH2CH2)4CO)[Pen][AEF][2Nal][Thp]EN[3Pal][NMeK]([PEG12-γGlu-C18 diacid])-NH2; disulfide 1-6) the IC50 was under 0.0005 µM.
